Experiment [1] concerns L,D-transpeptidase of E. faecium M512 (Ldtfm). In words: Standard radioactive exchange assay (Ac2-L-Lys-D-Ala and D-[14C]Ala). The class given is biochemical, Enterococcus faecium. To be noted: for use as donor: formation of radioactive peptides with D-[14C]Ala as the acceptor: 3 μg Ldtfm, 60 min, donor 1-5 mM. The source says: (§1) FIG. 9 (Ex FIG. 2). Identification and characterization of the L,D-transpeptidase of E. faecium M512. (A) Purification of the L,D-transpeptidase from an E. faecium M512 extract (lane 1) led to partial purification of a 48-kDa protein (lane 2). (B) The open reading frame for the 48-kDa protein was identified based on N-terminal sequencing ([…] [SEQ ID No 20], underlined) and similarity searches in the partial genome sequence of E. faecium. The partially purified 48-kDa protein corresponded to a proteolytic fragment since the sequence encoding its N-terminus was not preceded by a translation initiation codon. The upstream sequence contained a single likely translation initiation site (ACTTAAggag[…]atg [SEQ ID No 21]), consisting of an ATG initiation codon preceded by a putative ribosome binding site (lower case). The proteolytic cleavage removed the first 118 residues of the protein, including a cluster of hydrophobic residues at positions 13 to 28 (italicized), which could correspond to a membrane anchor. The C-terminus of Ldtfm (positions 340 to 466; bold) was related to a family of 341 sequences from eubacteria appearing in the Protein Families Database of Alignments under the pfam accession number PF03734. Ser439 and Cys442 (asterisks) are potential catalytic residues. (C) The portion of the open reading frame encoding the soluble protein partially purified form the E. faecium extract (positions 119 to 466) was cloned into E. coli and Ldtfm was purified with an overall yield of 3 mg per liter of culture. (D) The purified protein was active in an exchange reaction which assays for the capacity of the enzyme to catalyze cleavage of the L-Lys-D-Ala peptide bond of the model donor dipeptide substrate N^α,N^ε-diacetyl-L-lysyl-D-alanine (Ac2-L-Lys-D-Ala) and formation of a peptide bond between Ac2-L-Lys and D-[^14C]Ala. […] (F) The exchange assay was also performed with non-radioactive 2-amino and 2-hydroxy acids based on detection of the products by mass spectrometry and determination of their structure by tandem mass spectrometry, as exemplified by the fragmentation of Ac2-L-Lys-D-Met (m/z of 362.24). Loss of a C-terminal D-Met and of additional H2O led to ions at m/z 213.14 and 185.14, respectively. Ions at m/z 84.10 and 126.11 correspond to the immonium of L-Lys and its acetylated form, respectively.
Preferably, the L,D-transpeptidase activity is assessed by performing a standard exchange assay that is based on incubation of non-radioactive Ac2-L-Lys-D-Ala and D-[^14C]Ala and determination of Ac2-L-Lys-D[^14C]Ala formed by the L,D-transpeptidase catalytic activity, such as disclosed by Mainardi et al. (J. L. Mainardi et al., J. Biol. Chem. 277, 35801 (2002)) as well as in the examples herein.
In an illustrative embodiment of said standard exchange assay, a reaction mixture is provided, which reaction mixture contains (i) purified L,D-transpeptidase, (ii) Ac2-L-Lys-D-Ala, (iii) D-[^14C]Ala and (iv) optionally the candidate inhibitor compound. Then the enzyme reaction is performed until completion, generally during a time period of […], most preferably […], at a temperature range comprised between 36° C. and 38° C., advantageously between 36.5° C. and 37.5° C., most preferably at 37° C. Then, the enzyme reaction is stopped, for example by boiling the resulting reaction product mixture for a time period sufficient to inactivate the enzyme, such as for a period of time ranging from 3 min to 20 min, most preferably a period of time of about 15 min.
Then, the resulting reaction product mixture is centrifuged and a sample collected from the supernatant of centrifugation is analysed by chromatography, preferably by carrying out a reverse phase high-pressure liquid chromatography (rpHPLC), most preferably with isocratic elution.
Detection of the labeled reaction product resulting from the L,D-transpeptidase catalytic activity may be performed simultaneously with said chromatographic step. […]

Experiment [2] deals with Ldtfm. The experiment is described as follows: Exchange assay with non-radioactive 2-amino and 2-hydroxy acid acceptors, products detected by mass spectrometry. The class given is biochemical, Enterococcus faecium. As to conditions: for Product Relative intensity (%): ionic current intensity (product/product + substrate), donor Ac2-L-Lys-D-Ala 0.3 mM, acceptor 0.3 mM, Ldtfm (3 g), 1 h at 37° C.; for use as acceptor substrate in the exchange reaction with Ac2-L-Lys-D-Ala as the donor: result in words.
Text: as §1
To gain insight in the activity of Ldtfm, various 2-amino and 2-hydroxy acids were tested as potential acceptor substrates (Table 2) in an exchange reaction using the model dipeptide substrate Ac2-L-Lys-D-Ala as the donor (FIG. 9F). […] Hydrolysis of the C-terminal D-Ala of Ac2-L-Lys-D-Ala was not detected in the presence of a suitable acceptor substrate, indicating a biosynthetic function for Ldtfm, in contrast to the previously characterized L,D-carboxypeptidase involved in peptidoglycan recycling in E. coli (Templin et al., 1999).

Experiment [3] deals with T1, D-aspartate ligase (membrane or cytoplasmic extracts of E. faecium D359V8) (Enterococcus faecium, UniProt H8L902).
T1 construct: membrane or cytoplasmic extracts (60 μg); endogenous in cells; host or cells: Enterococcus faecium D359V8, crude membrane and cytoplasmic extracts
In words: D-aspartate ligase assay (in vitro addition of D-aspartate onto UDP-MurNac-pentapeptide). The class given is biochemical. To be noted: 60 μg membrane or cytoplasmic extracts, 2 hours at 37° C. On the procedure:
FIG. 2. […] Crude cytoplasmic extract (60 μg of protein) of E. faecium D359V8 were incubated for 2 h with UDP-MurNac-pentapeptide ([…]), D-[^14C]aspartic acid (0.11 mM, 55 mCi/mmol), ATP (20 mM) and MgCl2 (50 mM). D-[^14C]aspartic acid was separated from [^14C]UDP-MurNac-hexapeptide by descending paper chromatography. […] (+) presence of cytoplasmic extracts; (−) absence of crude extracts.
The assay was performed in a total volume of 25 μl containing Tris-Hcl (100 mM, pH 8.5), MgCl2 (50 mM), ATP (20 mM), D-[^14C]aspartic acid (0.11 mM, 55 mCi/mmol, Isobio, Fleurus, Belgium), UDP-MurNac-pentapeptide (0.15 mM) purified from S. aureus as previously described (Billot-Klein et al., 1997), and membrane or cytoplasmic extracts (60 μg). The reaction mixture was incubated 2 h at 37° C. and the reaction was stopped by boiling the samples for 3 min. […] The products of the reaction were also separated by reverse phase high-pressure liquid chromatography (rpHPLC) on a Hypersil C18 column ([…], 4.6×250 […], Interchrom, Montlugon, France) at a flow rate of 0.5 ml/min using isocratic elution (10 mM ammonium acetate, pH 5.0) and detected by the absorbance at 262 nm and liquid scintillation with a Radioflow Detector (LB508; Perkin Elmer, Courtaboeuf, France) coupled to the HPLC apparatus (L-62000A; Merck, Nogent-Sur-Marne, France). […]

Experiment [4] deals with E. faecium M512. To be noted: mutant E. faecium M512; cited from earlier work.
Experiment [5] deals with Ldtfm. The experiment is described as follows: In vitro transpeptidation (formation of dimers from monomeric muropeptides, mass spectrometry). To be noted: pool of three muropeptides, Ldtfm 3 μg, 2 h at 37° C. It counts as biochemical, Enterococcus faecium. On the procedure: FIG. 10 (Ex FIG. 3). […] (A) Ldtfm was incubated with a pool of three monomeric muropeptides containing the disaccharide GlcNAc-MurNAc substituted by three different stem peptides. […] Tetrapeptide-iAsn, L-Ala-D-iGln-L-(M-D-iAsn)Lys-D-Ala; Tripeptide-iAsn, L-Ala-D-iGln-L-(M-D-iAsn)Lys; Tetrapeptide, L-Ala-D-iGln-L-Lys-D-Ala. (B) Fragmentation was performed on the muropeptide lactoyl dimer at m/z 1118.5 which was obtained by ammonium hydroxide treatment of the dimer with a monoisotopic mass of 1927.88. The treatment cleaved off the disaccharide and converted D-iAsn into D-iAsp. (C) Structure of the dimer and inferred fragmentation pattern. […]
To assay for in vitro transpeptidation, the L,D-transpeptidase (3 μg) was incubated with the momomeric muropeptides GlcNAc-MurNAc-L-Ala-D-iGln-L-(M-D-iAsn)Lys-D-Ala (25 nmoles), GlcNAc-MurNAc-L-Ala-D-iGln-L-(M-D-iAsn)Lys (5 nmoles) and GlcNAc-MurNAc-L-Ala-D-iGln-L-Lys-D-Ala (5 nmoles) for 2 h at 37° C. in 25 μl of 5 mM sodium phosphate buffer (pH 6.0). The reaction was stopped by boiling the sample for 3 min and the mixture was centrifuged (10,000×g, 2 min). […] For tandem mass spectrometry analysis, the remaining of the reaction mixture was treated with ammonium hydroxyde to cleave the ether link internal to MurNAc (Arbeloa et al., 2004). The conditions for fragmentation of the resulting lactoyl-peptides with N2 as the collision gas were as previously described (Arbeloa et al., 2004).

“Also recorded” adds a separate entry of the source. Where a SMILES comes first, the peptide text is derived from it. Where no end group is shown, it is not given here. [ ]: non-standard residue; d: D form.

`CC(=O)NCCCC[C@H](NC(C)=O)C(=O)N[C@H](C)C(=O)O` [Ac2-L-Lys-D-Ala, N^α,N^ε-diacetyl-L-lysyl-D-alanine] (Ac-Lys(Ac)-[dA]-OH): the “use as donor: formation of radioactive peptides with D-[14C]Ala as the acceptor” value (“use as donor: formation” below) in experiment [1] is on record as “used as donors”.

Consider `C[C@@H](O)C(=O)O` [D-lactic acid], for which, in experiment [2], the “Product Relative intensity (%)” value came out at 37% and the “use as acceptor substrate in the exchange reaction with Ac2-L-Lys-D-Ala as the donor” value was “Formation of depsipeptides”.

As for `O=C(O)C[C@@H](O)C(=O)O` [D-malic acid], in experiment [2], the “Product Relative intensity (%)” value is 10% and the “use as acceptor substrate in the exchange reaction with Ac2-L-Lys-D-Ala as the donor” value is “Formation of depsipeptides”. Turning to `NCC(=O)O` [Glycine], the “Product Relative intensity (%)” value in experiment [2] worked out at 15%. For `N[C@@H](CC(=O)O)C(=O)O` [L-[^14C]aspartate], the “formation of hexapeptide when D-[14C]aspartate is replaced” value in experiment [3] was “No hexapeptide was formed”. In the case of `CC(=O)N[C@H]1[C@@H](OP(=O)(O)OP(=O)(O)OC[C@H]2O[C@@H](n3ccc(=O)[nH]c3=O)[C@H](O)[C@@H]2O)O[C@H](CO)[C@@H](O)[C@@H]1O[C@H](C)C(=O)N[C@@H](C)C(=O)N[C@H](CCC(=O)N[C@@H](CCCCN)C(=O)N[C@H](C)C(=O)N[C@H](C)C(=O)O)C(=O)O` [UDP-MurNAc-pentapeptide, UDP-N-acetylmuramyl-L-Ala-D-iGlu-L-Lys-D-Ala-D-Ala], the “use as donor: formation” value in experiment [1] is “not detected”. For the compound `CC1(C)S[C@@H]2[C@H](NC(=O)[C@H](N)c3ccccc3)C(=O)N2[C@H]1C(=O)O` [ampicillin], in experiment [1] (Ldtfm 3 μg, Ac2-L-Lys-D-Ala 0.3 mM, D-[14C]Ala 0.15 mM, various concentration of ampicillin), the “inhibition of Ldtfm in the exchange assay” value is “absence of inhibition; also recorded: not inhibited”. Moreover, the minimal inhibitory concentration in experiment [4] is greater than 2000 µg/mL. Regarding “GlcNAc-MurNAc-L-Ala-D-iGln-L-(M-D-iAsn)Lys-D-Ala [tetrapeptide-iAsn]”, the “use as donor in formation of dimers” value in experiment [5] is listed as “formation of dimers”. Regarding GlcNAc-MurNAc-L-Ala-D-iGln-L-Lys-D-Ala, in experiment [5], the “use as acceptor in formation of dimers” value is given as “not used as an acceptor” and the “use as donor in formation of dimers” value was “formation of dimers”. Consider “GlcNAc-MurNAc-L-Ala-D-iGlu-L-(N^ε-D-iAsn)Lys-D-Ala [GlcNAc-MurNAc-tetrapeptide-iAsn]”, for which, in experiment [1], the “use as donor: formation” value is on record as “used as donors”. As for “GlcNAc-MurNAc-L-Ala-D-iGlu-L-(N^ε-D-iAsn)Lys-D-Ala-D-Ala [GlcNAc-MurNAc-pentapeptide-iAsn]”, the “use as donor: formation” value in experiment [1] is “not detected”. Same read-out and setting: the result for “L-Ala-D-iGlu-L-Lys-D-Ala (A[diGlu]K[dA]) [tetrapeptide]” reads “used as donors”; that for “L-Ala-D-iGlu-L-Lys-D-Ala-D-Ala [pentapeptide]”, “not detected”; that for “N^α,N^ε-diacetyl-L-lysine-D-alanyl-D-alanine [Ac2-L-Lys-D-Ala-D-Ala]”, “not detected”.

As to “UDP-MurNAc-L-Ala-D-iGlu-L-Lys-D-Ala [UDP-MurNAc-tetrapeptide]”, in experiment [1], the “use as donor: formation” value is “used as donors”.

The values above are taken from patent publication US20150094229A1, “METHODS FOR THE SCREENING OF ANT[…]” (priority 2005, published 2015).
